{
  "source": "paper PMC13010972",
  "about": "(Chemical communications (Cambridge, England), 2026)",
  "key": {"[1]": {"tested_on": "S. enterica", "test": "checkerboard assay with colistin", "assay_type": "cell-based, Salmonella enterica", "details": "R-1 with colistin; FIC < 0.5 indicates synergy"}, "[2]": {"tested_on": "genes linked to the PhoPQ TCS", "details": "cited from earlier work"}, "[3]": {"tested_on": "polymyxin-resistant S. enterica strain EG9492", "details": "co-treatment of resistant strain EG9492s; cited from earlier work"}},
  "data": [
    {"compound": "Nc1nc2ccc(OC(F)(F)F)cc2s1", "note": "[R-1, riluzole]", "values": [
      {"measurement": "fractional inhibitory concentration (FIC) value", "setting": "[1]", "value": 0.28},
      {"measurement": "expression of genes linked to the PhoPQ TCS", "setting": "[2]", "value": "downregulation"},
      {"measurement": "change in the colistin MIC", "setting": "[3]", "value": "~ 8 fold"}
    ]}
  ]
}
